System: HRECs
Experiment: Visualization of actin filaments (stress fiber formation) in HRECs
Format: cell-based, human
Details: for VEGF-activated stress fiber formation: HRECs, 50 μM cystamine or 20 μM MDC 30 min, 10 ng/ml VEGF; for VEGF-induced stress fiber formation: summary statement, conditions not given
Protocol: Actin filaments and VE-cadherin were visualized as previously described. For visualization of actin filaments, cells were treated with 10 ng/ml VEGF for 1 hr at 37° C., fixed with 3.7% formaldehyde, and permeabilized with 0.2% Triton X-100. […] For visualization of VE-cadherin, cells were preincubated with the TGase2 inhibitors for 30 min and treated with 10 ng/ml VEGF for 90 min at 37° C. Following fixation and permeabilization, cells were incubated overnight with a monoclonal anti-VE-cadherin antibody (1:200, Santa Cruz Biotechnology) at 4° C. Cells were then probed with an FITC-conjugated goat anti-mouse antibody (1:200, Sigma) and VE-cadherin was visualized using confocal microscopy. Adherens junctions are represented by histograms of VE-cadherin as indicated by dotted lines and were quantitatively analyzed using peak fluorescence intensities of the histograms at the single-cell level for 10 randomly selected cells per experiment.
(A-C) HRECs were preincubated with 50 μM cystamine (Cys) and 20 μM MDC for 30 min and treated with 10 ng/ml VEGF. Stress fibers and VE-cadherin were stained and visualized by confocal microscopy as described in Research Design and Methods (n=3) ((A) Representative images of stress fibers. Scale Bar, 30 μm. (B) Representative images of VE-cadherin. Scale Bar, 10 μm). Adherens junctions are represented by histograms of VE-cadherin as indicated by dotted lines. (C) Adherens junctions were quantitatively analyzed using the peak fluorescence intensities of the histograms at the single-cell level. The results are expressed as mean±SD from three independent trials. (D) In-vitro endothelial cell monolayer permeability assay. HRECs on inserts of Transwell® Permeable Supports were incubated with 50 μM cystamine and 20 μM MDC for 30 min and treated with 10 ng/mL VEGF for 90 min. The amount of FITC-dextran that diffused to the lower chamber was measured by a microplate spectrofluorometer (n=3) (**p<0.01).
HRECs were transfected with 100 nM human TGase2-specific siRNA (TGase2 siRNA) or 100 nM control (Ctrl) siRNA. Endothelial cells were treated with 10 ng/ml VEGF and subjected to the confocal microscopic visualization of stress fibers (A) and VE-cadherin (B), as described in Research Design and Methods (n=3). (A) TGase2 siRNA inhibition of VEGF-induced formation of stress fibers. Scale bar, 30 μm. (B) Representative images of VE-cadherin and adherens junctions represented by VE-cadherin histograms. Scale bar, 10 μm. (C) Adherens junctions were quantitatively analyzed using peak fluorescence intensities of the histograms at the single-cell level. Results are expressed as mean±SD from three independent experiments (***p<0.001).

SMILES	VEGF-activated stress fiber formation	VEGF-induced stress fiber formation
NCCSSCCN [cystamine]	prevented	–
NCCS [cysteamine]	–	prevented
NCCc1ccc(O)c(O)c1 [dopamine]	–	prevented
CN(C)c1cccc2c(S(=O)(=O)NCCCCCN)cccc12 [MDC, monodansylcadaverine]	prevented	–

Reference: patent US10155948B2, “Pharmaceutical composition for preventing or treating diabetic complications and screening method for preventive or therapeutic agent for diabetic complications” (KANGWON NATIONAL UNIVERSITY UNIVERSITY-INDUSTRY COOPERATION …, priority 2016, dated 2018)
